Patent US20230270703A1, “COMPOUNDS AND METHODS FOR THE TREATMENT OF EYE DISORDERS” (OccuRx Pty Ltd, priority 2020, published 2023)
Like-named read-outs stand apart in the source and are kept apart here.

How the values were obtained:
[1] = Human Phase I clinical study, steady state exposure at 50 mg after 14 days dosing; assay type: in vivo, humans; settings: plasma, oral, Data from Phase I (after 14 days dosing)
Description: The corresponding data from the human Phase I clinical study is also included below, showing a much greater than predicted Cmax and AUC0-24 at 50 mg dosing.

[2] = Rat plasma pharmacokinetic study, single daily dose for 28 days, plasma on first day of dosing; assay type: in vivo, Sprague-Dawley rats; settings: Sprague-Dawley, read-out: elimination half-life (converted)
Description: Sprague-Dawley rats were administered a single daily dose of (E)-2-[[3-methoxy-4-(difluoromethoxy)phenyl-1-oxo-2-propenyl]amino]benzoic at 25, 50 or 100 mg/kg for 28 consecutive days. Plasma was collected up to 24 hours post-dose on the first day of dosing.

[3] = Animal pharmacokinetic data, 91 days of dosing in dogs; assay type: in vivo
[4] = Human Phase I clinical trial plasma pharmacokinetics, single 50 mg dose; assay type: in vivo, humans; settings: 50 mg single oral dose
Description: Six healthy male volunteers in a Phase I clinical trial received a single dose of 50 mg (E)-2-[[3-Methoxy-4-(difluoromethoxy)phenyl-1-oxo-2-propenyl]amino] benzoic acid administered as powder-in-capsule. Blood was collected 10 minutes prior to dosing, and at 15 and 30 minutes and 1, 2, 3, 4, 6, 8, 12, 24, 36, 48, 72 and 96 hours post dose into K2EDTA tubes. Samples were spun in a refrigerated centrifuge within 1 hour of collection, at 2000 g for 10 minutes. Plasma was collected and frozen on dry ice.
(§1) The concentration of (E)-2-[[3-Methoxy-4-(difluoromethoxy)phenyl-1-oxo-2-propenyl]amino]benzoic acid in plasma was determined using a validated LC-MS/MS method. A non-compartmental analysis was performed using WinNonLin software. Nominal doses and sampling times were used. Concentration values below the lower limit of quantitation were treated as zero for pharmacokinetic analysis.

[5] = Animal pharmacokinetic data, 91 days of dosing in rats; assay type: in vivo
[6] = Rat plasma and retina pharmacokinetics, single oral dose 50 mg/kg; assay type: in vivo, Sprague Dawley rats; settings: single oral dose 50 mg/kg
Description: Male Sprague Dawley rats were administered a single dose of 50 mg/kg of (E)-2-[[3-Methoxy-4-(difluoromethoxy)phenyl-1-oxo-2-propenyl]amino]benzoic acid by oral gavage. The oral formulation was prepared in 1% carboxymethyl cellulose. Samples were collected from 3 animals/timepoint at 1, 2, 4, 8 and 24 hours after dosing. Whole blood was collected from the tail vein in conscious rats into polypropylene tubes containing heparin. Blood samples were centrifuged immediately (3000 rpm, for 10 minutes) and supernatant plasma removed and snap frozen in liquid N2. After blood collection, animals were euthanised with pentobarbitone (120 mg/kg), eyes were enucleated and retina were weighed, collected and snap frozen in liquid nitrogen. Blood was centrifuged at 3000 rpm for 10 mins at 4° C. and plasma was collected and snap frozen in liquid N2. Plasma and retinal concentrations of (E)-2-[[3-Methoxy-4-(difluoromethoxy)phenyl-1-oxo-2-propenyl]amino]benzoic acid were determined using a validated LC-MS/MS method. Cmax and Tmax was estimated using GraphPad prism software.

[7] = Dog plasma pharmacokinetic study, single daily dose for 28 days, plasma on first day of dosing; assay type: in vivo, Beagle dogs; settings: beagle, read-out: elimination half-life (converted)
Description: Beagle dogs were administered a single daily dose of (E)-2-[[3-Methoxy-4-(difluoromethoxy)phenyl-1-oxo-2-propenyl]amino]benzoic at 25, 50 or 100 mg/kg for 28 consecutive days. Plasma was collected up to 24 hours post-dose on the first day of dosing.

[8] = Human clinical plasma pharmacokinetics, single or multiple doses of 200 mg; assay type: in vivo, humans; settings: for Dose normalised AUC0-inf / Dose normalised Cmax / AUC(0-inf) / Cmax / Tmax / half-life: 200 mg oral; for AUC(0-inf) / Cmax / Tmax / half-life: human, plasma, po; for half-life: read-out: T ½ (converted)
Description: Clinical pharmacokinetic studies were also conducted on volunteers who received a single dose or multiple doses of 200 mg (E)-2-[[3-Methoxy-4-(difluoromethoxy)phenyl-1-oxo-2-propenyl]amino] benzoic acid administered as powder-in-capsule. Blood was collected 10 minutes prior to dosing, and at 15 and 30 minutes and 1, 2, 3, 4, 6, 8, 12, 24, 36, 48, 72 and 96 hours post dose into K2EDTA tubes. Samples were spun in a refrigerated centrifuge within 1 hour of collection, at 2000 g for 10 minutes. Plasma was collected and frozen on dry ice.
as §1

[9] = Rabbit plasma and ocular tissue steady state pharmacokinetics, 8 daily oral doses; assay type: in vivo, Dutch Belted pigmented rabbits; settings: for Tmax / Cmax: male, Dutch Belted
Description: Male Dutch Belted pigmented rabbits were administered a once daily dose of 50 or 100 mg/kg of (E)-2-[[3-Methoxy-4-(difluoromethoxy)phenyl-1-oxo-2-propenyl]amino]benzoic acid by oral gavage for 8 days. The oral formulation was prepared in 1% carboxymethyl cellulose. Blood was collected into tubes containing K2EDTA from two animals/dose/time point at 0 (predose), 1, 2, 4, 8, and 24 hours after the last dose on Study Day 8. Immediately following blood collection, animals were sacrificed via overdose of sodium pentobarbital. Blood samples were placed in a chilled cryorack until centrifuged to obtain plasma, which was stored at approximately -70° C. At the time of sacrifice for all animals, both eyes were enucleated, the aqueous humor was collected and discarded, and each eye was then flash frozen in liquid nitrogen for 15 to 20 seconds. The enucleated eye was placed on dry ice or stored at approximately -70° C. for at least two hours. Within approximately 5 days, the choroid-RPE, iris-ciliary body, retina and vitreous humor were collected from the right and left eye. The ocular tissues were rinsed with saline and blotted dry, as appropriate, weighed, and placed on dry ice. Sample analysis was performed using a qualified LC-MS/MS method to ascertain the concentration of (E)-2-[[3-Methoxy-4-(difluoromethoxy)phenyl-1-oxo-2-propenyl]amino]benzoic acid in each tissue matrix. Non-compartmental analysis (Gibaldi and Perrier, 1982) was applied to the individual and mean concentration data. Nominal doses and sampling times were used. Concentration values below the lower limit of quantitation were treated as zero for pharmacokinetic analysis. The plasma and ocular steady state non-compartmental pharmacokinetic parameters for repeated oral administration of 50 or 100 mg/kg on Day 8 are summarized in Table 2 and further below.

[10] = Tranilast plasma pharmacokinetics after 200 mg oral dosage (data from Charng et al.); assay type: in vivo, humans; settings: human plasma
Description: Pharmacokinetic data for a comparator compound Tranilast following 200 mg oral dosage are also shown. See, e.g., Charng M, Ding P Y, Chuang M, et al. Pharmacokinetic Properties of Tranilast in Chinese People. Journal of Food and Drug Analysis, Vol. 10, No. 3, 2002, Pages 135-138. Tranilast is approved for use in an amount of 3 × 100 mg/day.

[11] = human plasma, cited from earlier work
[12] = Tranilast 200 mg, Day 1, single dose

## COc1cc(/C=C/C(=O)Nc2ccccc2C(=O)O)ccc1OC(F)F [(E)-2-[[3-methoxy-4-(difluoromethoxy)phenyl-1-oxo-2-propenyl]amino]benzoic acid]
[1]
  Cmax: 6560 ng/mL
[1]; read-out: AUC0-24 hrs, ss
  AUC(0-t): 74 µg·h/mL
[2]; 25 mg/kg
  half-life: 12.9 h
[2]; 50 mg/kg
  half-life: 13 h
[2]; 100 mg/kg
  half-life: 11 h
[3]
  accumulation with multiple dosing: did not show accumulation
[4]
  Dose normalised AUC0-inf: 2,256 ng·h/mL
  Dose normalised Cmax: 175 ng/mL
[4]; male
  AUC(0-inf): 113 µg·h/mL
  Tmax: 2.5 h
[4]; male, powder-in-capsule
  Cmax: 8740 ng/mL
[4]; male, read-out: T ½ (converted)
  half-life: 24 h
[5]
  accumulation with multiple dosing: did not show accumulation
[6]; male, Sprague Dawley, rat retina, read-out: estimated Cmax in retina
  Cmax: 792 ng/g
[6]; rat plasma
  estimated maximum concentration in plasma: 35,134 ng/mL
  time of estimated maximum concentration in plasma: 1 h
[6]; rat retina
  time of estimated maximal exposure in retina: 4 h
[6]; rat
  detection in the plasma and retina at 24-hours post-dose: still detected
[7]; 25 mg/kg
  half-life: 4.3 h
[7]; 50 mg/kg
  half-life: 4.9 h
[7]; 100 mg/kg
  half-life: 4.2 h
[8]; Day 1, single dose
  Dose normalised AUC0-inf: 1951 ng·h/mL
  Dose normalised Cmax: 164 ng/mL
[8]; Day 14, multiple dose
  Dose normalised AUC0-inf: 18,874 ng·h/mL
  Dose normalised Cmax: 338 ng/mL
[8]; 200 mg, steady state vs single dose
  increase in Cmax after 14 days of dosing compared with a single dose: two-fold increase
[8]; 200 mg, Day 1, single dose
  AUC(0-inf): 390 µg·h/mL
  Cmax: 32800 ng/mL
  Tmax: 3 h
  half-life: 9.6 h
[8]; 200 mg, Day 14, multiple dose
  AUC(0-inf): 3770 µg·h/mL
  Cmax: 67600 ng/mL
  Tmax: 2.5 h
  half-life: 23.2 h
[9]; oral, rabbit ocular tissues, 50 and 100 mg/kg, read-out: Tmax for all analyzed ocular tissues
  Tmax: 1 to 4 h
[9]; rabbit Choroid-RPE, 50 mg/kg/day oral, Day 8
  Cmax: 3320 ng/g
[9]; rabbit Choroid-RPE, 50 mg/kg/day oral, Day 8, read-out: Tmax
  Tmax: 1 h
[9]; rabbit Choroid-RPE, 100 mg/kg/day oral, Day 8
  Cmax: 12300 ng/g
[9]; rabbit Choroid-RPE, 100 mg/kg/day oral, Day 8, read-out: Tmax
  Tmax: 2 h
[9]; rabbit Iris Ciliary Body, 50 mg/kg/day oral, Day 8
  Cmax: 2510 ng/g
[9]; rabbit Iris Ciliary Body, 50 mg/kg/day oral, Day 8, read-out: Tmax
  Tmax: 1 h
[9]; rabbit Iris Ciliary Body, 100 mg/kg/day oral, Day 8
  Cmax: 8620 ng/g
[9]; rabbit Iris Ciliary Body, 100 mg/kg/day oral, Day 8, read-out: Tmax
  Tmax: 2 h
[9]; rabbit Plasma, 50 mg/kg/day oral, Day 8
  Cmax: 15200 ng/mL
[9]; rabbit Plasma, 50 mg/kg/day oral, Day 8, read-out: Tmax
  Tmax: 1 h
[9]; rabbit Plasma, 100 mg/kg/day oral, Day 8
  Cmax: 42000 ng/mL
[9]; rabbit Plasma, 100 mg/kg/day oral, Day 8, read-out: Tmax
  Tmax: 2 h
[9]; rabbit Retina, 50 mg/kg/day oral, Day 8
  Cmax: 623 ng/g
[9]; rabbit Retina, 50 mg/kg/day oral, Day 8, read-out: Tmax
  Tmax: 1 h
[9]; rabbit Retina, 100 mg/kg/day oral, Day 8
  Cmax: 2370 ng/g
[9]; rabbit Retina, 100 mg/kg/day oral, Day 8, read-out: Tmax
  Tmax: 4 h
[9]; rabbit Vitreous Humour, 50 mg/kg/day oral, Day 8
  Cmax: 3.3 ng/mL
[9]; rabbit Vitreous Humour, 50 mg/kg/day oral, Day 8, read-out: Tmax
  Tmax: 1 h
[9]; rabbit Vitreous Humour, 100 mg/kg/day oral, Day 8
  Cmax: 11.5 ng/mL
[9]; rabbit Vitreous Humour, 100 mg/kg/day oral, Day 8, read-out: Tmax
  Tmax: 4 h
[9]; rabbits, either dose (50 or 100 mg/kg)
  detection in plasma or ocular tissue by 24 hours-post dose: could not be detected

## COc1ccc(/C=C/C(=O)Nc2ccccc2C(=O)O)cc1OC [Tranilast]
[10]; Tranilast 200 mg oral
  Dose normalised AUC0-inf: 2,060 ng·h/mL
  Dose normalised Cmax: 210 ng/mL
[10]; [12]
  Dose normalised AUC0-inf: 2,060 ng·h/mL
  Dose normalised Cmax: 210 ng/mL
[11]; Tranilast 200 mg oral
  AUC(0-inf): 412,000 ng·h/mL
  Cmax: 42,000 ng/mL
  T ½: 7.5 h
  Tmax: 2.8 h
[11]; [12]
  AUC(0-inf): 412,000 ng-h/mL
  Cmax: 42,000 ng/mL
  T ½: 7.5 h
  Tmax: 2.8 h
